Assay results taken from US7968526B2, “Antisense oligonucleotides directed to ribonucleotide reductase R2 and uses thereof in the treatment of cancer” (Lorus Therapeutics Inc., priority 2003, dated 2011).
“Also recorded” adds a separate entry of the source. [5mC] = 5-methylcytosine

How the values were obtained:
[1] = test system: C8161 human metastatic melanoma cells; assay: Experimental metastasis assay, C8161 cells, treatment post tumour cell injection; assay type: in vivo, human cells in mice; settings: C8161 cells i.v. into SCID mice; treatment initiated after 2 days; lungs 5-7 weeks later
Description: C8161 human melanoma cells were seeded into 100 mm tissue culture dishes at a density of 2×10^6 and incubated overnight at 37° C. in α-MEM medium supplemented with 10% FBS. The cells were trypsinized, collected by centrifugation and aliquots were removed from the suspension to determine the cell viability using trypan blue exclusion test. […] Treatment was initiated after 2 days. Estimates of the number of lung nodules were made 5-7 weeks later, after excised lungs from individual mice were stained with picric acid dye solution (75% picric acid, 20% formaldehyde, 5% glacial acetic acid).
Murine R3 fibrosarcoma and human C8161 melanoma cells injected into the tail vein of mice form observable lung nodules 2 weeks post-injection. […] To more accurately reflect the clinical situation, mice were treated with SEQ ID NO:1 post tumour cell injection. C8161 human metastatic melanoma cells were seeded into 100 mm tissue culture dishes at a density of 2×10^6 and incubated overnight at 37° C. in α-MEM medium supplemented with 10% FBS. The cells were trypsinized, collected by centrifugation and aliquots were removed from the suspension to determine the cell viability using trypan blue exclusion test. Approximately 1×10^5 cells suspended in 0.1 ml of PBS were injected into the tail veins of 6-8 week old female SCID mice. Treatment was initiated after 2 days. Estimates of the number of lung nodules were made 5-7 weeks later, after excised lungs from individual mice were stained with picric acid dye solution (75% picric acid, 20% formaldehyde, 5% glacial acetic acid). The results are shown in FIG. 31, bars represent the mean number of nodules per mouse with standard error.

[2] = test system: human Burkitt's lymphoma (Raji) cells; assay: Survival of SCID mice bearing human Burkitt's lymphoma (Raji); assay type: in vivo, human cells in mice; settings: 10 mg/kg i.v. every second day
Description: Mice with established human Burkitt's lymphoma tumours were treated every second day with either saline or SEQ ID NO:1 for 44 days as described above. The control group mice all died from disease progression by day 20. At day 44, the SEQ ID NO:1 mice continued treatment on a weekly basis until stopping the treatment at day 73.
As an additional test of efficacy SEQ ID NO:1 was administered to SCID mice bearing active Burkitt's lymphoma (FIG. 30). Viable human Burkitt's lymphoma (Raji) cells (5×10^6) collected from subconfluent logarithmically growing cultures were injected i.v. into each animal and disease was allowed to establish for 2 days. SEQ ID NO:1, SEQ ID NO:3 and SEQ ID NO:2, in normal saline were administered by tail vein injection every second day at a dose of 10 mg/kg. At day 40 the treatment schedule was reduced to 10 mg/kg every 3 days. Control animals received saline alone, without oligonucleotide. Survival is presented as a percentage of the starting number of mice over time.

[3] = test system: MDA-MB-231 human breast cancer cells; assay: MDA-MB-231 breast tumour xenograft in CD-1 nude mice, combination with taxol or doxorubicin (1.7); assay type: in vivo, human cells in mice; settings: MDA-MB-231, CD-1 nude mice; oligonucleotides 10 mg/kg i.v. every other day; taxol 10 mg/kg, doxorubicin 5 mg/kg i.v. weekly
Description: After 52 days the mice were sacrificed and the tumours weighed. […] Mitoxantrone was administered intravenously once at the beginning of the treatments at a dose of 2 mg/kg (FIG. 4A) or once a week for four weeks at a reduced dose of 0.8 mg/kg (FIG. 4B). All treatments were stopped at day 50 (FIG. 4A) or 48 (FIG. 4B), respectively. […] Mitoxantrone was administered intravenously once at the beginning of the treatments at a dose of 2 mg/kg (FIG. 5A) or once a week for four weeks at a reduced dose of 0.8 mg/kg (FIG. 5B). All treatments were stopped at day 42 (FIG. 5A) or 38 (FIG. 5B), respectively. […] A2058 is a metastatic melanoma cell line. […] All treatments were stopped at day 24. […] Taxol was administered intravenously once a week at a dose of 10 mg/kg for three (FIG. 7A) or four weeks (FIG. 7C). Doxorubicin was administered intravenously once a week at a dose of 5 mg/kg for first three weeks (FIG. 7A) or for two weeks (FIG. 7C). All treatments were stopped at day 33 (FIG. 7A) or at day 26 (FIG. 7C), respectively. […] In FIG. 7C, antitumour activities were estimated by the inhibition of tumour volume, which was measured with calipers. Each point represents mean tumour volume calculated from 10 animals per experimental group. […] Taxol was administered intravenously once a week for first three weeks and intraperitoneally once a week for next two weeks at a dose of 10 mg/kg. Cisplatin was administered intravenously once a week for first three weeks and intraperitoneally once a week for next two weeks at a dose of 4 mg/kg. All treatments were stopped at day 40. Antitumour activities were estimated by the inhibition of tumour volume, which was measured with caliper. Each point represents mean tumour volume calculated from 9 animals per experimental group.

[4] = test system: Hep G2 human liver cancer cells; assay: HepG2 liver tumour growth in CD-1 nude mice (3.7); assay type: in vivo, human cells in mice; settings: Hep G2, CD-1 nude mice; 2.5 mg/kg i.v. every day, 30 days
Description: Treatments lasted for 14 days thereafter. Antitumour activities were estimated by the inhibition of tumour volume, which was measured with a caliper on four different occasions over the treatment period. Each point represents mean tumour volume calculated from 5 animals per experimental group. […] Control animals (control) received saline alone for the same period. At the end of the treatments, the animals were sacrificed, tumours were excised and their weights were measured. Each bar represents mean tumour weight calculated from 6 animals per experimental group. […] Treatments lasted for 24 days thereafter. Antitumour activities were estimated by the inhibition of tumour volume, which was measured with a caliper at two-day intervals over the treatment period. Each point represents mean tumour volume calculated from 4 animals per experimental group. […] Treatments lasted for 24 days thereafter. Antitumour activities were estimated by the inhibition of tumour volume, which was measured with a caliper at two-day intervals over the treatment period. Each point represents mean tumour volume calculated from 4 animals per experimental group. […] Treatments lasted for 22 days thereafter. […] Each point represents mean tumour volume calculated from 5 animals per experimental group. […] Treatments lasted for 14 days thereafter. Antitumour activities were estimated by the inhibition of tumour volume, which was measured with a caliper on four different occasions over 16-day period. Each point represents mean tumour volume calculated from 5 animals per experimental group. […] Two different batches of SEQ ID NO:1, synthesized at different times (designated as batch 1 and batch 2), were tested to detect possible batch-specific effects. […] Treatments lasted for 34 days thereafter. Antitumour activities were estimated by the inhibition of tumour volume, which was measured with a caliper at two-day intervals over the treatment period. Each point represents mean tumour volume calculated from 5 animals per experimental group. […] Treatments lasted for 30 days thereafter. Antitumour activities were estimated by the inhibition of tumour volume, which was measured with a caliper at various time intervals over the span of 30 days. Each point represents mean tumour volume calculated from 6 animals per experimental group. […] All treatments were stopped at day 36. Antitumour activities were estimated by the inhibition of tumour volume, which was measured with a caliper. Each point represents mean tumour volume calculated from 5 animals per experimental group. […] All treatments were stopped at day 52. […] Antitumour activities were estimated by the inhibition of tumour volume, which was measured with a caliper.

[5] = test system: HT-29 human colon cancer cells; settings: SEQ ID NO:1 6 mg/kg i.v. every day, mitomycin C 3.5 mg/kg/week i.v.
Description: • 1.1 HT-29 human colon cancer cells (3×10^6 cells in 100 μl of PBS) were subcutaneously injected into the right flank of 6-7 weeks old female CD-1 nude mice. After the size of tumour reached an approximate volume of 50 mm^3, 4 days post tumour cell injection, mitomycin C was administered by bolus infusion into the tail vein at days 4, 11 and 18 with a dose of 3.5 mg/kg/week. […] SEQ ID NO:1 was administered by bolus infusion into the tail vein every day at 6 mg/kg and mitomycin C was administered intravenously at days 4, 11 and 18 with a dose of 3.5 mg/kg/week, one hour after the treatments with SEQ ID NO:1. Control animals received saline alone for the same period as SEQ ID NO:1. All treatments were stopped at day 22. A day after the last treatment, tumours were excised from the animals and their weights were measured.

HT29 tumour xenografts = HT29 tumour xenografts in CD-1 nude mice, methylated oligonucleotides; assay type: in vivo, human cells in mice; settings: compared with SEQ ID NO:1
[6] = SCID mice (Example 7, FIG. 30), from day 40 every 3 days
[7] = SCID mice, stopped at day 42, sacrificed day 73, untreated all died within 23 days

Molecule | Lung nodule formation / anti-metastatic activity (FIG. 31) [1] | Survival of mice [2, 6] | Survival of mice [2, 7] | Anti-tumour activity (FIG. 33) (HT29 tumour xenografts) | also measured
5′-ACGCACTCAGCTAGTGACAC-3′ (listed as DNA, chemistry not given here) [SEQ ID NO:3, reference compound] | no anti-metastatic activity | neither SEQ ID NO:3 nor SEQ ID NO:2 control ODNs prolonged survival | no observed efficacy | – | Antitumour effect (tumour weight / volume, FIG. 7) [3]: no significant anti-tumour activity as a monotherapy; also recorded: does not cooperate with doxorubicin; Inhibitory effect on tumour growth (tumour volume, FIG. 20) [4]: did not differ from that in saline treated mice
5′-GGCTAAACTCGTCCACCAAG-3′ (listed as DNA, chemistry not given here) [SEQ ID NO:2, reference compound] | no anti-metastatic activity | neither SEQ ID NO:3 nor SEQ ID NO:2 control ODNs prolonged survival | no observed efficacy | – | –
CO[C@@]12[C@H](COC(N)=O)C3=C(C(=O)C(C)=C(N)C3=O)N1C[C@@H]1N[C@@H]12 [Mitomycin C, mitomycin C] | – | – | – | – | Tumour weight as % of saline control ([5]; HT-29 (colon), SCID mouse as printed): 15%; Antitumour effect (tumour weight, FIG. 1) ([5]; HT-29, CD-1 nude mice): significant delay of tumour growth compared to saline control
SEQ ID NO:4: SEQ ID NO:1 with methylation at the CpG (C9) (GGCTAAATCGCTCCACCAAG; [5mC] at 9, all phosphorothioate, sugars by position and methylation of C not given here) | – | – | – | does not abrogate the anti-tumour activity of SEQ ID NO:1; also recorded: measurable, but not significant, effect on the anti-tumour activity | –
SEQ ID NO:5: control oligonucleotide (met-11C) (GGCTAAATCGCTCCACCAAG; listed as DNA, chemistry not fully specified) [reference compound] | – | – | – | measurable, but not significant, effect on the anti-tumour activity | –
